# Measured values published in US11389505B2, “Method of managing joint pain” (ORTHOTROPHIX, INC., priority 2017, dated 2022).
# Ends that are not written are not given here.
# Tested on: subjects with osteoarthritis of the knees
# Assay: Clinical study of TPX-100, safety and tolerability of intra-articular administration
# Format: in vivo, human
substance,measurement,setting,value
TDLQERGDNDISPFSGDGQPFKD-NH2 [TPX-100],Dose-limiting toxicities,"Part A, 20, 50, 100 and 200 mg per intra-articular injection, 4 weekly injections",no dose-limiting toxicities
same,Severe adverse events related to the drug treatment,throughout the study period,no severe adverse events likely or possibly related to the drug treatment
same,Severity of treatment-related adverse events,throughout the study period,"mild or moderate, transient"
same,Safety and tolerability of treatments,throughout the study period (12 months),safe and well tolerated
